Measurements published in patent US20240180878A1, “AMIDE DERIVATIVES OF BUTYRIC ACID FOR USE IN THE TREATMENT OR PREVENTION OF SARS-COV-2 INFECTION” (RHEA INNOVATIONS S.R.L., priority 2021, published 2024).

How the values were obtained:
[1] = system: tumor necrosis factor-alpha (TNF-α); assay: Small intestinal biopsy organ culture, qRT-PCR gene expression; type: cell-based; conditions: human small intestine biopsies, 2 mM FBA vs medium alone
ACE2 [2] = assay: as above; type: cell-based; conditions: human small intestine biopsies, 2 mM FBA for 24 h vs medium alone
IL-1β = assay: SARS-CoV-2 infection model in Caco-2 cells, gene expression; type: cell-based, human; conditions: Caco-2 pretreated with 2 mM FBA for 24 h, then 1 MOI wild-type SARS-CoV-2 for 72 h
TNF-α [3] = assay: as above; type: cell-based, human; conditions: Caco-2 pretreated with 2 mM FBA for 24 h, then 1 MOI wild-type SARS-CoV-2 for 72 h
Method: (§1) The SARS-CoV-2 infection was performed on Caco-2, at 15 days post-confluence, using SARS-CoV-2 wild-type strain. Before the infection, cells were incubated with 2 mM of FBA for 24 h at 37° C. 1 MOI of SARS-CoV-2 was added to the Caco-2 monolayer for 72 h. Then, SARS-CoV-2 inoculum was removed, the cells were washed three times with PBS 1× and were harvested for RNA, proteins extraction and for fluorescence microscopy analysis.
(§2) RNA samples were extracted, processed and analyzed as described above. Western blotting was performed on the total protein extracts of infected Caco-2 cells pretreated with FBA. For the total protein fraction, the harvested cells were washed in cold phosphate-buffered saline (PBS) and lysed in protein lysis buffer (RIPA). Protein concentrations in cell extracts were determined using the Bradford assay (BioRad, Milan, Italy). Thirty microgram total lysates were loaded onto 10% SDS-PAGE and then transferred to nitrocellulose membranes (ImmobilonR-Transfer Membrane, Tullagreen, Carrigtwohill, Co). The membranes were blocked with 5% non-fat milk in PBS, pH 7.6, 0.2% Tween 20 (PanReac AppliChem) and probed overnight at 4° C. with the specific primary antibodies for ACE2 (1:2000; Abcam). After washing in PBS, pH 7.6, 0.2% Tween 20, the membranes were incubated with a horseradish peroxidase-conjugated goat anti-rabbit antibody (1:2000; Abcam). The immunoblots were visualized using ECL detection kits, with enhanced chemiluminescence (Pierce, Rockford, IL, USA). A mouse β-actin antibody (1:5000; Elabscience) was used as the control for equal loading of total lysates.

MCP-1 [4] = assay: as above; type: cell-based, human; conditions: Caco-2 pretreated with 2 mM FBA for 24 h, then 1 MOI wild-type SARS-CoV-2 for 72 h
Method: as §1, §2

VEGFβ = assay: as above; type: cell-based, human; conditions: Caco-2 pretreated with 2 mM FBA for 24 h, then 1 MOI wild-type SARS-CoV-2 for 72 h
Method: as §1, §2

TMPRSS2 [5] = assay: as above; type: cell-based, human; conditions: Caco-2 pretreated with 2 mM FBA for 24 h, then 1 MOI wild-type SARS-CoV-2 for 72 h
Method: as §1, §2

CXCL1 = assay: as above; type: cell-based, human; conditions: Caco-2 pretreated with 2 mM FBA for 24 h, then 1 MOI wild-type SARS-CoV-2 for 72 h
Method: as §1, §2

IL-15 [6] = assay: Human respiratory epithelial cell line Calu3, qRT-PCR gene expression; type: cell-based; conditions: Calu3 cells, 2 mM FBA, 24 h of incubation
ACE2 [7] = assay: Human enterocytes cell line (Caco-2), qRT-PCR gene expression; type: cell-based; conditions: Caco-2 cells, 2 mM FBA (maximal effective dose), 24 h of incubation
MCP-1 [8] = assay: Human respiratory epithelial cell line Calu3, qRT-PCR gene expression; type: cell-based; conditions: Calu3 cells, 2 mM FBA, 24 h of incubation
TMPRSS2 [9] = assay: as above; type: cell-based; conditions: Calu3 cells, 2 mM FBA, 24 h of incubation
[10] = system: monocyte chemoattractant protein-1 (MCP-1); assay: Small intestinal biopsy organ culture, qRT-PCR gene expression; type: cell-based; conditions: human small intestine biopsies, 2 mM FBA vs medium alone
TNF-α [11] = assay: Human respiratory epithelial cell line Calu3, qRT-PCR gene expression; type: cell-based; conditions: Calu3 cells, 2 mM FBA, 24 h of incubation
TMPRSS2 [12] = assay: Small intestinal biopsy organ culture, qRT-PCR gene expression; type: cell-based; conditions: human small intestine biopsies, 2 mM FBA for 24 h vs medium alone
ACE2 [13] = assay: Human respiratory epithelial cell line Calu3, qRT-PCR gene expression; type: cell-based; conditions: Calu3 cells, 2 mM FBA, 24 h of incubation
TNF-α [14] = assay: Human enterocytes cell line (Caco-2), qRT-PCR gene expression; type: cell-based; conditions: Caco-2 cells, 2 mM FBA (maximal effective dose), 24 h of incubation
[15] = system: SARS-CoV-2 wild-type strain; type: cell-based; conditions: Caco-2 pretreated with 2 mM FBA for 24 h, then 1 MOI wild-type SARS-CoV-2 for 72 h
IL-15 [16] = assay: Human enterocytes cell line (Caco-2), qRT-PCR gene expression; type: cell-based; conditions: Caco-2 cells, 2 mM FBA (maximal effective dose), 24 h of incubation
ACE2 [17] = assay: SARS-CoV-2 infection model in Caco-2 cells, expression (qRT-PCR, Western blotting); type: cell-based, human; conditions: Caco-2 pretreated with 2 mM FBA for 24 h, then 1 MOI wild-type SARS-CoV-2 for 72 h
Method: as §1
RNA samples were extracted, processed and analyzed as described above. Western blotting was performed on the total protein extracts of infected Caco-2 cells pretreated with FBA. For the total protein fraction, the harvested cells were washed in cold phosphate-buffered saline (PBS) and lysed in protein lysis buffer (RIPA). Protein concentrations in cell extracts were determined using the Bradford assay (BioRad, Milan, Italy). Thirty microgram total lysates were loaded onto 10% SDS-PAGE and then transferred to nitrocellulose membranes (ImmobilonR-Transfer Membrane, Tullagreen, Carrigtwohill, Co). […]
Western blotting was performed on the total protein extracts of infected Caco-2 cells pretreated with FBA. […] Protein concentrations in cell extracts were determined using the Bradford assay (BioRad, Milan, Italy). […]

interleukin (IL)-15 = assay: Small intestinal biopsy organ culture, qRT-PCR gene expression; type: cell-based; conditions: human small intestine biopsies, 2 mM FBA vs medium alone
TMPRSS2 [18] = assay: Human enterocytes cell line (Caco-2), qRT-PCR gene expression; type: cell-based; conditions: Caco-2 cells, 2 mM FBA (maximal effective dose), 24 h of incubation
MCP-1 [19] = assay: as above; type: cell-based; conditions: Caco-2 cells, 2 mM FBA (maximal effective dose), 24 h of incubation

CCCC(=O)NC(Cc1ccccc1)C(N)=O (centres unmarked) [FBA, N-(1-carbamoyl-2-phenyl-ethyl) butyramide]
expression of TNF-α [1]: significant reduction
expression of ACE2 (ACE2 [2]): significantly decreased
expression of IL-1β (IL-1β): inhibit
expression of TNF-α (TNF-α [3]): inhibit
expression of MCP-1 (MCP-1 [4]): inhibit
expression of VEGFβ (VEGFβ): inhibit
TMPRSS2 expression (TMPRSS2 [5]): inhibit
expression of CXCL1 (CXCL1): inhibit
expression of IL-15 (IL-15 [6]): downregulate
ACE2 expression (ACE2 [7]): significantly reduce
expression of MCP-1 (MCP-1 [8]): downregulate
expression of TMPRSS2 (TMPRSS2 [9]): downregulate
expression of MCP-1 [10]: significant reduction
expression of TNF-α (TNF-α [11]): downregulate
expression of TMPRSS2 (TMPRSS2 [12]): significantly decreased
expression of ACE2 (ACE2 [13]): downregulate
TNF-α expression (TNF-α [14]): significantly reduce
virus entry [15]: inhibit
IL-15 expression (IL-15 [16]): significantly reduce
ACE2 expression (ACE2 [17]): inhibit
expression of interleukin (IL)-15 (interleukin (IL)-15): significant reduction
TMPRSS2 expression (TMPRSS2 [18]): significantly reduce
MCP-1 expression (MCP-1 [19]): significantly reduce
